Reference: the NIST ThermoML archive (doi:10.1016/j.fluid.2005.11.015)
Numbers after ± are expanded uncertainties.

Settings: Crystal; visual observation

Work on `CCCCn1cc[n+](C)c1.[Cl-]` [1-butyl-3-methylimidazolium chloride] yielded a Normal melting temperature of 67.0 ± 2 °C.
